Test results reported in ChEMBL document CHEMBL1201862, “PubChem BioAssay data set” (2004).
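The compound was tested at five concentrations on cells cultured in 96-well plates, with a 48-hour exposure period. Abbreviation: GI50, concentration required for 50% inhibition of growth.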 Calls of active or inactive are those of the source. Rule as the data show it: active = GI50 up to about 1.1 µM and inactive = higher.

Experiments:
Experiment in all cases: growth of human tumour cells (NCI), 48 h
[1] = tested on: HCT-15
[2] = tested on: CAKI-1
[3] = tested on: EKVX
[4] = tested on: SK-MEL-5
[5] = tested on: NCI-H226
[6] = tested on: SK-MEL-28
[7] = tested on: RXF 393
[8] = tested on: HT-29
[9] = tested on: A549
[10] = tested on: NCI-H460
[11] = tested on: SR
[12] = tested on: TK-10
[13] = tested on: OVCAR-8
[14] = tested on: HL-60
[15] = tested on: SN12C
[16] = tested on: OVCAR-4
[17] = tested on: UACC-62
[18] = tested on: IGROV-1

Row | SMILES | GI50 [1] | GI50 [2] | GI50 [3] | GI50 [4] | GI50 [5] | GI50 [6] | GI50 [7] | GI50 [8] | GI50 [9] | GI50 [10] | GI50 [11] | GI50 [12] | GI50 [13] | GI50 [14] | GI50 [15] | GI50 [16] | GI50 [17] | GI50 [18]
1 | C/N=C1\CC2c3cc(OC)c(OC)cc3CCN2C2=C1C(=O)CC(C)(C)C2 (configuration not stated) | > 10 µM | > 100 µM (inactive) | > 100 µM (inactive) | > 100 µM (inactive) | > 100 µM (inactive) | > 100 µM (inactive) | > 100 µM (inactive) | > 100 µM (inactive) | > 100 µM (inactive) | > 100 µM (inactive) | > 100 µM (inactive) | > 100 µM (inactive) | > 100 µM (inactive) | > 100 µM (inactive) | > 100 µM (inactive) |  |  | 
2 | O=c1/c(=C/c2ccccc2F)sc2nc3ccccc3n12 | > 100 µM | > 100 µM (inactive) | > 100 µM (inactive) | > 100 µM (inactive) | > 100 µM (inactive) | > 100 µM (inactive) | > 100 µM (inactive) | > 100 µM (inactive) | > 100 µM (inactive) | > 100 µM (inactive) | 38.3 µM (inactive) | > 100 µM (inactive) | > 100 µM (inactive) | > 100 µM (inactive) | > 100 µM (inactive) | > 100 µM (inactive) | > 100 µM (inactive) | > 100 µM (inactive)
3 | Cc1ccn2c(c1)nc1nc3ccccc3nc12 | > 100 µM | > 100 µM (inactive) | > 100 µM (inactive) | > 100 µM (inactive) | > 100 µM (inactive) | > 100 µM (inactive) | > 100 µM (inactive) | > 100 µM (inactive) | > 100 µM (inactive) | > 100 µM (inactive) | > 100 µM (inactive) | > 100 µM (inactive) | > 100 µM (inactive) | > 100 µM (inactive) |  | > 100 µM (inactive) | > 100 µM (inactive) | > 100 µM (inactive)
4 | CC1=NOC(=O)/C1=C/c1ccccc1O | > 100 µM | > 100 µM (inactive) | > 100 µM (inactive) | > 100 µM (inactive) | > 100 µM (inactive) | > 100 µM (inactive) |  | > 100 µM (inactive) | > 100 µM (inactive) | > 100 µM (inactive) | > 100 µM (inactive) | > 100 µM (inactive) | > 100 µM (inactive) | > 100 µM (inactive) | > 100 µM (inactive) | > 100 µM (inactive) | > 100 µM (inactive) | > 100 µM (inactive)
5 | C=CCNC(=S)N1CC(C)C(=O)Nc2cc(Cl)ccc21 (configuration not stated) | > 100 µM | > 100 µM (inactive) | > 100 µM (inactive) | > 100 µM (inactive) | 54.2 µM (inactive) | > 100 µM (inactive) | > 100 µM (inactive) | > 100 µM (inactive) | > 100 µM (inactive) | > 100 µM (inactive) | > 100 µM (inactive) | > 100 µM (inactive) | > 100 µM (inactive) | > 100 µM (inactive) | > 100 µM (inactive) | > 100 µM (inactive) | > 100 µM (inactive) | > 100 µM (inactive)
6 | COc1cc(/C=C2\[C@H]3c4c(c(OC)c(C)c(OC)c4OC)C[C@@H](C(=O)N2Cc2ccccc2)N3C(=O)OCC(C)C)c(OC)c(C)c1OC | > 100 µM | 23.6 µM (inactive) | > 100 µM (inactive) | 26.2 µM (inactive) | 1.16 µM (inactive) | > 100 µM (inactive) | > 100 µM (inactive) | > 84.5 µM (inactive) | > 71.1 µM (inactive) |  | 13.3 µM (inactive) | > 100 µM (inactive) | > 100 µM (inactive) | 7.46 µM (inactive) | > 100 µM (inactive) | > 100 µM (inactive) | > 100 µM (inactive) | > 77.8 µM (inactive)
7 | Cc1ccc([N+](=O)[O-])cc1NC(=O)/C(=N/NC(=S)NN)C1SC(=S)NC1=O (configuration not stated) | > 100 µM | > 100 µM (inactive) | > 100 µM (inactive) | > 100 µM (inactive) | > 100 µM (inactive) | > 100 µM (inactive) | > 100 µM (inactive) | > 100 µM (inactive) | > 100 µM (inactive) | > 100 µM (inactive) | > 100 µM (inactive) | > 100 µM (inactive) | > 100 µM (inactive) | 78.3 µM (inactive) | > 100 µM (inactive) | > 100 µM (inactive) | > 100 µM (inactive) | > 100 µM (inactive)
8 | O=C(CC1(O)C(=O)Nc2ccccc21)c1ccc(Cl)c(Cl)c1 (configuration not stated) | > 100 µM | > 100 µM (inactive) | 69.3 µM (inactive) | > 100 µM (inactive) | > 100 µM (inactive) | > 100 µM (inactive) | > 100 µM (inactive) | > 100 µM (inactive) | > 100 µM (inactive) | > 100 µM (inactive) | > 100 µM (inactive) |  |  | 22.8 µM (inactive) | > 100 µM (inactive) | > 100 µM (inactive) | > 100 µM (inactive) | > 100 µM (inactive)
9 | CCn1c2c(c3ccccc31)[C@@H](c1ccc(Cl)cc1)CC1C(=O)N(c3ccccc3)C(=O)C21 (some centres not stated) | > 100 µM | > 100 µM (inactive) | > 100 µM (inactive) | > 100 µM (inactive) | 45.6 µM (inactive) | > 100 µM (inactive) | 38 µM (inactive) | 65.5 µM (inactive) | > 100 µM (inactive) | 67.1 µM (inactive) | 12.8 µM (inactive) | > 100 µM (inactive) | > 100 µM (inactive) | 16.4 µM (inactive) | 75.5 µM (inactive) | > 100 µM (inactive) | 51.2 µM (inactive) | > 100 µM (inactive)
10 | Cc1ccc(Nc2ccc(Nc3ccc(C)cc3S(=O)(=O)O)c3c2C(=O)c2ccccc2C3=O)c(S(=O)(=O)O)c1 | > 100 µM | > 100 µM (inactive) | > 100 µM (inactive) | > 100 µM (inactive) | > 100 µM (inactive) | > 100 µM (inactive) | > 100 µM (inactive) |  | > 100 µM (inactive) | > 100 µM (inactive) | > 100 µM (inactive) | > 100 µM (inactive) | > 100 µM (inactive) | > 100 µM (inactive) | > 100 µM (inactive) | > 100 µM (inactive) | > 100 µM (inactive) | > 100 µM (inactive)
11 | CC1(C)CC(=O)c2c(oc3cc(O)c(O)cc23)C1 | 25.4 µM | 25.8 µM (inactive) |  | 17.7 µM (inactive) |  |  | 29.4 µM (inactive) | 53 µM (inactive) | 38 µM (inactive) | 32 µM (inactive) | 18.8 µM (inactive) | > 100 µM (inactive) | 19.2 µM (inactive) | 16 µM (inactive) | 39.5 µM (inactive) | 19.5 µM (inactive) | 17.3 µM (inactive) | 40.2 µM (inactive)
12 | CC[C@@H]1C[C@H]2CC3c4[nH]c5ccc(O)cc5c4CCN(C2)C31 | > 100 µM | > 100 µM (inactive) | > 100 µM (inactive) |  | > 100 µM (inactive) | > 100 µM (inactive) | 72.3 µM (inactive) | > 100 µM (inactive) | > 100 µM (inactive) | > 100 µM (inactive) | > 100 µM (inactive) | > 100 µM (inactive) | > 100 µM (inactive) | > 100 µM (inactive) | > 100 µM (inactive) |  | > 100 µM (inactive) | > 100 µM (inactive)
